{"source": "patent US20120101261A1", "about": "“USE OF MULTI-KINASE INHIBITORS IN THE TREATMENT OF VASCULAR HYPERPERMEABILITY” (Fondazione IRCCS Istituto Nazionale Dei Tumori, priority 2009, published 2012)", "key": {"[1]": {"tested_on": "severe bilateral leg lymphedema", "assay": "Observation of leg lymphedema in a Hodgkin lymphoma patient in a phase II clinical trial", "assay_type": "in vivo, human", "details": "one Hodgkin lymphoma patient, 800 mg/die, lymphedema from post-radiotherapy compressive lymphatic obstruction", "from_the_text": "In this patient, lymphedema was due a compressive lymphatic obstruction related to post-radiotherapy sequelae."}, "[2]": {"tested_on": "vascular permeability in mouse tail", "assay": "Miles vascular permeability assay (Evans blue) in mice with surgically induced tail lymphedema", "assay_type": "in vivo", "method": "A Miles vascular permeability assay using intrasplenic injection of the blue dye Evans blue was perfomed in untreated and sorafenib-treated mice bearing a surgical-induced tail lymphedema.\nSix- to eight-wk-old female C57BL/6 mice with body weight of 20 to 25 g, were used in this experiment. Tail lymphedema was generated by a circumferential incision through the dermis close to the tail base, as described above. […] On day 16, mice received the last dose of sorafenib and 2 hrs later were injected through the spleen with 0.1 ml of 1% Evan's blue in PBS. After 2 h, the mice were exsanguinated under anesthesia, and were perfused with heparin in PBS until lungs and livers were blanched. The distal portion of the tail was then removed and placed in formamide at 37° C. overnight to extract Evan's blue dye. […]"}, "[3]": {"tested_on": "tail lymphedema in C57BL/6 mice", "assay": "Mouse tail model of lymphedema", "assay_type": "in vivo", "details": "60 mg/kg/die days 5 to 9 and 12 to 16", "method": "Six- to eight-wk-old female C57BL/6 mice with body weight of 20 to 25 g, were purchased from Charles River (Milano, Italy, EU). Mice were housed under standard laboratory conditions according to the Applicant's institutional guidelines. Animal experiments were performed according to the Italian laws (Law Decree 116/92 and following additions), which enforce the EU […] Directive, and were approved by the institutional Ethical Committee for Animal Experimentation.\nTo create lymphedema, a circumferential incision was made through the dermis close to the tail base to sever the dermal lymphatic vessels. The edges of this incision were then pushed apart, thereby severing the deeper draining lymphatics, preventing superficial bleeding, and creating a 2-3 mm gap to delay wound closure.\nSorafenib dosing used in mice experiments is roughly equivalent to a 300 mg daily dosing in humans.\nMice were than randomly assigned to receive two cycles of sorafenib (60 mg/kg/die) from days 5 to 9 and 12 to 16 or control vehicle."}, "[4]": {"tested_on": "acquired arm lymphedema", "assay": "Pilot clinical study in breast cancer patients with acquired arm lymphedema", "assay_type": "in vivo, human", "details": "oral 200 mg daily, up to 8 weeks, ten patients", "from_the_text": "To further evaluate in a clinical setting the anti-lymphedema activity of multi-kinase inhibitor sorafenib, the Applicants performed a pilot study on a compassionate need basis to evaluate the toxicity and the anti-lymphedema effects of multi-kinase inhibitor sorafenib in consenting breast cancer patients with acquired arm lymphedema occurring following surgical dissection of, and/or radiotherapy on axillary lymphnodes. No other treatment options of proven efficacy was available for these patients.\nPatients were administered with oral sorafenib at a dose of 200 mg daily.\nTherapy was given for a maximum of 8 weeks or until lymphedema progression or appearance of clinical significant toxicity probably related to multi-kinase inhibitor sorafenib.\nWithin a two-month period of time ten breast cancer patients with acquired lymphedema of the arm were treated with multi-kinase inhibitor sorafenib.\nAt the end of treatment, the efficacy of multi-kinase inhibitor sorafenib was evaluated as percentage reduction of total arm circumference as compared with pre-treatment values. The median reduction of total arm circumference was 60% (range, 30 to 100). Lymphedema reduction was associated with a 5-10% reduction of body weight."}}}
{"smiles": "CNC(=O)c1cc(Oc2ccc(NC(=O)Nc3ccc(Cl)c(C(F)(F)F)c3)cc2)ccn1", "note": "[sorafenib, Sorafenib]", "values": [{"measurement": "regression of severe bilateral leg lymphedema", "setting": "[1]", "result": "complete regression"}, {"measurement": "mean (±SEM) OD620 of Evans blue extracted from the tail", "setting": "[2]; 60 mg/kg, 384 h", "result": "0.09±0.009"}, {"measurement": "reduction of vascular permeability vs untreated mice (extravasated Evans blue)", "setting": "[2]; day 16, 60 mg/kg/die days 5 to 9 and 12 to 16", "result": 2, "unit": "fold"}, {"measurement": "mean (±SEM) tail diameter at lymphedema peak", "setting": "[3]; day 7 after incision, control peak 63±3 mm on day 15", "result": "58±4", "unit": "mm"}, {"measurement": "resolution of tail lymphedema", "setting": "[3]; day 20", "result": "complete resolution of lymphedema"}, {"measurement": "mean (±SEM) tail diameter on day 20", "setting": "[3]; day 20 after incision, control 58±3, P≦0.0003, baseline 36±1", "result": "36±1", "unit": "mm"}, {"measurement": "median reduction of total arm circumference vs pre-treatment", "setting": "[4]; end of treatment", "result": 60, "unit": "%"}, {"measurement": "reduction of body weight associated with lymphedema reduction", "setting": "[4]", "result": "5-10%"}, {"measurement": "tolerability", "setting": "[4]; no dose reduction or discontinuation due to toxicity", "result": "well tolerated"}]}
